The values that follow come from publication PMC9503212, “A High-Affinity ^64Cu-Labeled Ligand for PET Imaging of Hepsin: Design, Synthesis, and Characterization” (Pharmaceuticals, 2022).

One assay addresses T1, matriptase (Homo sapiens, UniProt Q9Y5Y6).
T1 sequence (Q9Y5Y6 1-855): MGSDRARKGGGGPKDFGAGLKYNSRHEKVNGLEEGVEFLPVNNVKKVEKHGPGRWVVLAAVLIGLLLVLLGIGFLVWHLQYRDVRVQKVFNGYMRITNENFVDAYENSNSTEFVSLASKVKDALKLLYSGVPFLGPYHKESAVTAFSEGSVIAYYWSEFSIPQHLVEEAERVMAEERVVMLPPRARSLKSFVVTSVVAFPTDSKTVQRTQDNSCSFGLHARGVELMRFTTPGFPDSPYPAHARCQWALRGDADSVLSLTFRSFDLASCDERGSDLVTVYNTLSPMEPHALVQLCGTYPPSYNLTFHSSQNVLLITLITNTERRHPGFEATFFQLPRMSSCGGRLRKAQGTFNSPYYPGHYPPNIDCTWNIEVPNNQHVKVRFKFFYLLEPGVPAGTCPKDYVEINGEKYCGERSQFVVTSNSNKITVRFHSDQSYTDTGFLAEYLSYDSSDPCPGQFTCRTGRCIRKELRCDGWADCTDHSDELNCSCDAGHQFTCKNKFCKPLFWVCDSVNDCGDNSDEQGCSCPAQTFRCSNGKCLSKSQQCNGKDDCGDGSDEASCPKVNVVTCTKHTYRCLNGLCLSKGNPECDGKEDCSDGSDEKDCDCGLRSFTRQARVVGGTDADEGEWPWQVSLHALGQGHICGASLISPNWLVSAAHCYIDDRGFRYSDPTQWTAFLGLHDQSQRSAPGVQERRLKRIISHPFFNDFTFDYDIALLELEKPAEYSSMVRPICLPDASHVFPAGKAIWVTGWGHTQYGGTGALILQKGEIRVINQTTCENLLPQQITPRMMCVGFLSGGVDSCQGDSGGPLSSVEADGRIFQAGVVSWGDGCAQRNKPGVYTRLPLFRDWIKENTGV
Nature of the assay: In vitro binding assay (fluorogenic BOC–QAR–AMC substrate), matriptase. The assay is classed as biochemical. The conditions noted are these: 0.3 nM enzyme, 150 μM substrate, Ki by Cheng and Prusoff from IC50, three determinations. The procedure: (§1) Ligands (0.03 nM–30 µM) were diluted in DMSO (2% final concentration) and mixed with either activated hepsin or matriptase in 96-well plates. The final assay concentration for both hepsin and matriptase in TNC buffer was 0.3 nM. After an incubation period of 30 min at 37 °C, BOC–QAR–AMC substrate (R&D Systems) was added to hepsin and matriptase assay mixtures. The final substrate concentration was 150 μM in a final reaction volume of 100 μL.
(§2) Changes in fluorescence (excitation at 380 nm and emission at 460 nm) were measured at room temperature over 2 h in a BioTek Synergy two-plate reader (Agilent Technologies). Using the GraphPad Prism version 6.02 software (San Diego, CA, USA), a non-linear curve fit was performed to determine the inhibitor IC50s from a plot of the mean reaction velocity versus the inhibitor concentration. The IC50 values represent the average of three experimental determinations (Figure S1). Ki values were calculated using the Cheng and Prusoff equation (Ki = IC50/(1 + [S]/Km)).

In another assay the target is T2, Recombinant hepsin (Homo sapiens, UniProt P05981).
T2 construct: purchased R&D Systems
The assay can be described thus: In vitro binding assay (fluorogenic BOC–QAR–AMC substrate), hepsin. The assay is classed as biochemical. The conditions noted are these: for Ki: 0.3 nM enzyme, 150 μM substrate, Ki by Cheng and Prusoff from IC50, three determinations; for Matriptase/ Hepsin (hepsin selectivity, ratio of Ki values): ratio of Ki values for matriptase and hepsin. The procedure:
Recombinant hepsin (R&D Systems, Minneapolis, MN, USA) was diluted 5.5-fold in TNC buffer (25 mM Tris-HCl, 150 mM NaCl, 5 mM CaCl2, 0.01% Triton X-100, pH 8) and incubated at 37 °C. After 24 h, hepsin was diluted in glycerol to 50%. The stock solution (1.2 μM) was stored at −81 °C and diluted in TNC buffer before use.
as §1, §2

A further assay relates to hepsin. The conditions noted are these: cited from earlier work.

T2 sequence (P05981 163-417 limits assumed): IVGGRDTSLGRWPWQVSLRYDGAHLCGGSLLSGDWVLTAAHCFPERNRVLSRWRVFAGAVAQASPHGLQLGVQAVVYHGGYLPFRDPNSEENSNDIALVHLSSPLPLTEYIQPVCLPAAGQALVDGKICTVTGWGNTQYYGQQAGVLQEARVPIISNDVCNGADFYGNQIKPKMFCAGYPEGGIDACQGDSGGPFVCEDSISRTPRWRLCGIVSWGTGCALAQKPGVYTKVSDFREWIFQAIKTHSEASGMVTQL
T2 sequence (P05981 1-162 partner limits assumed): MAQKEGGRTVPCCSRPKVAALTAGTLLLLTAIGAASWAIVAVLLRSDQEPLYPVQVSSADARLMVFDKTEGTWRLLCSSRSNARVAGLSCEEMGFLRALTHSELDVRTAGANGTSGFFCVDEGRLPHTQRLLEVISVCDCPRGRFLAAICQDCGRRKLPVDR

Broadly, the Ki is the equilibrium dissociation constant of an inhibitor or competing ligand from its target. Consider `CC(=O)N[C@@H](CC(C)C)C(=O)NC(CCCNC(=N)N)C(=O)c1nccs1` (some centres unmarked) [Ac–Leu–Arg–kt, reference compound], for which the Ki at matriptase is 56.5 ± 2.7 nM; on Recombinant hepsin, 7.8 ± 2.8 nM; at hepsin (read-out: Ki hepsin, previous reported value), 22.4 ± 0.5 nM. Besides, on Recombinant hepsin, the “Matriptase/ Hepsin (hepsin selectivity, ratio of Ki values)” value is listed as 7.2. The “hepsin selectivity (ratio of Ki values for matriptase and hepsin), previous reported value” in the assay with hepsin was 14.9.

For `CC(C)C[C@H](NC(=O)CCc1cn(CCOCCOCCF)nn1)C(=O)NC(CCCNC(=N)N)C(=O)c1nccs1` (stereo partly drawn) [Ligand 1A, (2S)-2-(3-(1-(2-(2-(2-Fluoroethoxy)ethoxy)ethyl)-1H-1,2,3-triazol-4-yl)propanamido)-N-(5-guanidino-1-oxo-1-(thiazol-2-yl)pentan-2-yl)-4-methylpentanamide], the Ki at matriptase is 54.5 ± 4.9 nM. In addition, at Recombinant hepsin, the Ki is 0.9 ± 0.1 nM and the “Matriptase/ Hepsin (hepsin selectivity, ratio of Ki values)” value is listed as 60.6.

Consider `CC(C)C[C@H](NC(=O)CCc1cn(CCOCCOCCF)nn1)C(=O)NC(CCCNC(=N)N)C(=O)c1nccs1` (stereo partly drawn) [Ligand 1B, (2S)-2-(3-(1-(2-(2-(2-Fluoroethoxy)ethoxy)ethyl)-1H-1,2,3-triazol-4-yl)propanamido)-N-(5-guanidino-1-oxo-1-(thiazol-2-yl)pentan-2-yl)-4-methylpentanamide], for which the Ki at matriptase turned out to be 20 ± 0.6 nM. Besides, on Recombinant hepsin, the Ki is 0.5 ± 0.1 nM and the “Matriptase/ Hepsin (hepsin selectivity, ratio of Ki values)” value is listed as 40.0.

For “^natCu-DOTA-conjugated 1-amino-N-(1-((5-guanidino-1-oxo-1-(thiazol-2-yl)pentan-2-yl)amino)-4-methyl-1-oxopentan-2-yl)-3,6,9,12-tetraoxapentadecan-15-amide [Ligand 3A]”, the Ki at matriptase is 249 ± 12.3 nM. Moreover, at Recombinant hepsin, the Ki is 15 ± 0.6 nM and the “Matriptase/ Hepsin (hepsin selectivity, ratio of Ki values)” value is on record as 16.6.

As to “^natCu-DOTA-conjugated 1-amino-N-(1-((5-guanidino-1-oxo-1-(thiazol-2-yl)pentan-2-yl)amino)-4-methyl-1-oxopentan-2-yl)-3,6,9,12-tetraoxapentadecan-15-amide [Ligand 3B]”, at matriptase, the Ki amounted to 120 ± 3.5 nM. Besides, at Recombinant hepsin, the inhibition constant (Ki) was 5.1 ± 0.3 nM and the “Matriptase/ Hepsin (hepsin selectivity, ratio of Ki values)” value amounted to 23.5.

As to “^natGa-DOTA-conjugated 1-amino-N-(1-((5-guanidino-1-oxo-1-(thiazol-2-yl)pentan-2-yl)amino)-4-methyl-1-oxopentan-2-yl)-3,6,9,12-tetraoxapentadecan-15-amide [Ligand 2A]”, at matriptase, the Ki was found to be 166 ± 8.2 nM. At Recombinant hepsin, the Ki was 14.3 ± 1.2 nM and the “Matriptase/ Hepsin (hepsin selectivity, ratio of Ki values)” value was 11.6.

Regarding “^natGa-DOTA-conjugated 1-amino-N-(1-((5-guanidino-1-oxo-1-(thiazol-2-yl)pentan-2-yl)amino)-4-methyl-1-oxopentan-2-yl)-3,6,9,12-tetraoxapentadecan-15-amide [Ligand 2B]”, on matriptase, the Ki turned out to be 68.2 ± 2.4 nM. On Recombinant hepsin, the Ki came to 5.7 ± 0.2 nM and the “Matriptase/ Hepsin (hepsin selectivity, ratio of Ki values)” value amounted to 12.0.
